Patent US5442101A, “Methylenebisphosphonic acid derivatives” (Leiras Oy, priority 1990, dated 1995)

System: parathyroid hormone stimulated bone resorption in mouse calvaria
Experiment: parathyroid hormone stimulated bone resorption inhibition activity in vitro in mouse calvaria (antiresorptive activity)
Format: cell-based
Details: PTH stimulated

| SMILES | inhibition at 100 µM | Antiresorptive activity, Inhibition of resorption (%) (100 μM) |
| --- | --- | --- |
| CCN(CC)P(=O)(O)C(Cl)(Cl)P(=O)(O)N(CC)CC [(dichloromethylene)bisphosphonic acid P,P'-bis(diethylamide)] | 38% |  |
| CCN(CC)P(=O)(OC(C)C)C(Cl)(Cl)P(=O)(O)O (centres unmarked) [(dichloromethylene)bisphosphonic acid P-monoisopropyl ester P-mono(diethylamide)] |  | 44% |
| CCN(CC)P(=O)(O)C(Cl)(Cl)P(=O)(O)O [(dichloromethylene)bisphosphonic acid mono(diethylamide)] | 43% |  |
| CCN(CC)P(=O)(O)C(Cl)(Cl)P(=O)(N(CC)CC)N(CC)CC [(dichloromethylene)bisphosphonic acid tris(diethylamide)] | 44% |  |
| O=P(O)(O)C(Cl)(Cl)P(=O)(O)O [Clodronate, reference compound] | 43% |  |
